Assay results: patent EP0791056B1, “LIPID-CLEAVAGE ENZYME COMPLEX” (priority 1994, dated 1996)

System: Phosphodiesterase aus Schlangengift
Experiment: Enzymatic cleavage of AZT-DMDOPE, detection of cleavage products by thin-layer chromatography
Type: biochemical
Settings: 10 mg AZT-DMDOPE in 0,1 M Tris, 0,5 mg enzyme, 15 h + 6 h at 37 °C

## CCCCCCCCCCCCSCC(COP(=O)(O)OC[C@H]1O[C@@H](n2cc(C)c(=O)[nH]c2=O)C[C@@H]1N=[N+]=[N-])OCCCCCCCCCC (stereo partly shown) [AZT-DMDOPE, (3'-Desoxy-3'-azidothymidin)-5'-phosphorsäure-(3-dodecyl-mercapto-2-decyloxy)-propylester]
  Fluoreszenzauslöschung DC: negativ
